Results reported in patent US5990083A, “Multicatalytic protease inhibitors” (Cephalon, Inc., priority 1997, dated 1999).

Columns and labels:
[1] = system: processing of electroporated OVA by M12.B6 cells; assay: Inhibition of MHC-I processing of electroporated OVA; assay type: cell-based, mouse; conditions: FIGS. 2 and 3, IL-2 secretion by T hybridoma cells
Experimental: Compounds of the invention were assayed for the ability to inhibit the processing of exogenous OVA antigen by the class I major histocompatibility pathway (MHC-I). The MCP inhibitors were applied to a functional antigen processing system that allows inclusion of the inhibitor within the antigen processing cell during exposure to antigen, followed by fixation of the processing cell. T cell hybridomas are then added to the processing cells in the absence of inhibitor to determine the expression of peptide-MHC-I complexes, which reflects antigen processing prior to fixation.
Cells were grown at 37° C. in a humidified atmosphere maintained at 5% CO2 in a standard medium: DMEM (Gibco, St. Louis, Mo.) with 10% fetal calf serum (Hyclone, Logan Utah), 5×10^-5 M 2-mercaptoethanol, antibiotics and the following supplements: L-arginine HCl (116 mg/L), L-asparagine (36 mg/L), NaHCO3 (2 g/L), sodium pyruvate (1 mM). See also Harding, C. V., (1992) Eur. J. Immunol. 22: 1865-1869. […]
Electroporation was performed with a Gibco BEL Electroporator using 0.4 cm gap cuvette chambers. […] The extent of processing, (i.e., the level of specific peptide-MHC complexes expressed) was determined by the ability of the M12.B6 cells to stimulate IL-2 secretion by B3.1 or DOBW T hybridoma cells. […]

[2] = system: wild-type and FALS mutant (Ala4→Val, Ile113→Thr) SOD-1 in 293 cells; assay: Dose response of SOD-1 isoforms in stably transformed 293 cell lines; assay type: cell-based, human
Experimental: Cells were maintained in G418 selection for three weeks at which time drug selection was removed and the G418-resistant colonies of each transformed cell type were pooled for further growth. Compound 14 was utilized in these studies.
Cell lines expressing the indicated SOD-1 isoforms were incubated with various concentrations of compound 14 for 24 hours at which time the SOD-1 levels were measured by densitometric scanning of immunoblots.

[3] = system: Ala4→Val mutant SOD-1 in transformed 293 cells; assay: Specificity of MCP activity in SOD-1 turnover, Ala4→Val cell line; assay type: cell-based, human; conditions: 20 μM, 24 hours; FIG. 7; relative to untreated samples
Experimental: (§1) Res. Comm. (1988) 153: 1201.), a cell penetrating "calpain" inhibitor (calpain is a cysteine protease); and DK-3 (Enzyme Systems Products, Dublin, Calif. CBZ-Phe-Ala-CHN2) inhibits lysosomal protease activity. […] Cell lines expressing the indicated SOD-1 isoforms were incubated for 24 hours with the following protease inhibitors: Compound 14, 20 μM; Calpeptin, 10 μM; DK-3, 5 μM; Compound 16, 20 μM; or with DMSO as a negative control. After the 24 hours of incubation with the inhibitors, SOD-1 levels were measured by densitometric scanning of immunoblots. […] Each data point is the average of results from three experiments.

[4] = system: wild-type SOD-1 in transformed 293 cells; assay: Specificity of MCP activity in SOD-1 turnover, wild-type cell line; assay type: cell-based, human; conditions: 20 μM, 24 hours; FIG. 7
Experimental: as §1

[5] = system: Ile113→Thr mutant SOD-1 in human 293 cells; assay: SOD-1 levels in transiently transfected 293 cells (immunoblot); conditions: 5 μM, 24 hours, FIG. 5
Experimental: The human kidney cell line designated 293 (human 293 cells or 293 cells)was obtained from the American Type Culture Collection (ATCC), 12301 Parklawn Drive, Rockville, Md., 20852 (ATCC #CRL 1573) and grown in Dulbecco's modified Eagle's medium with 4.6 g/L glucose, 10% heat-inactivated horse serum (Gibco/Life Technologies Inc. Gaithersburg, Md.). The human 293 cells were maintained at 37° C. in an atmosphere of 5% CO2. The 293 cells were transiently transfected using the calcium phosphate method (Chen, C. et al., Biotechniques 6: 632 (1988). The pCMV-113 SOD-1 expression vector was introduced into 293 cells and 24 hours later, the cells were incubated with either compound 34, compound 14, or compound 24, all at a concentration of 5 μM, for a duration of 24 hours. The known MCP and other protease inhibitory compounds were solubilized in dimethyl sulfoxide (DMSO). Other 293 cell cultures were incubated with an equal volume of DMSO or left in medium only as negative controls.
Approximately 48 hours prior to receiving test compounds, 5×10^5 293 cells were seeded in 36 mm dishes and maintained at 37° C. in an atmosphere of 5% CO2. Cells were incubated with MCP inhibitors (compound 34, 14 or 24) or with DMSO as a negative control for a duration of 24 hours. Cell lysates were prepared by lysing the cells in approximately 75 μl of phosphate-buffered saline (PBS) by freeze/thaw cycling. Protein concentrations of the cell lysates were determined using the BCA method (Pierce, Rockford, Ill.) and 2 to 2.5 μg of each sample was electrophoresed on a 4-20% polyacrylamide geol (Novex, San Diego, Calif.) using a Tris/glycine/SDS (25 mM Tris/192 mM glycine/0.1% SDS) buffer system. […] Stained bands corresponding to SOD-1 protein were quantitated using a DocuGel V image analysis system and RFLPscan software (Scanalytics, Billerica, Mass.). Levels of SOD-1 are expressed as units of induction relative to the negative control (i.e., units of experimental divided by units of control).

| SMILES | Effect on MHC-1 OVA processing [1] | Concentration giving maximal SOD-1 accumulation ([2]; 24 hours, FIG. 6) | Reduction of wild-type and mutant SOD-1 degradation ([2]; summary statement) | Accumulation of SOD-1 protein levels ([2]; various concentrations, 24 hours, FIG. 6) | Effect on turnover of the wild-type SOD-1 protein ([2]; wild-type SOD-1 cell line, dose response) | Increase in the accumulation of SOD-1 protein (Ala4→Val mutant) [3] | Wild-type SOD-1 accumulation [4] | SOD-1 levels compared to controls [5] |
| --- | --- | --- | --- | --- | --- | --- | --- | --- |
| COC(=O)CCCCCCCC(C(=O)N[C@@H](CCCNC(=N)NS(=O)(=O)c1c(C)c(C)c2c(c1C)CCC(C)(C)O2)C(=O)N[C@H](C=O)CC(C)C)C1CCCC1 (stereo partly drawn) [Compound 20, 9-Methoxycarbonyl-2-cyclopentyl-nonanoyl-N^g-(2,2,5,7,8-pentamethylchroman-6-sulfonyl)-L-arginyl-L-leucinal] | effectively inhibit OVA processing | – | – | – | – | – | – | – |
| CC(C)C[C@@H](C=O)NC(=O)[C@H](CCCNC(=N)N[N+](=O)[O-])NC(=O)C(CCCCCCCCC#N)C1CCCC1 (stereo partly drawn) [Compound 14, 10-cyano-2-cyclopentyldecanoyl-N^g-nitro-L-arginyl-L-leucinal] | effectively inhibit OVA processing | approximately 20 μM | reduces wild-type and mutant SOD-1 degradation in a dose-dependent manner | significant accumulations of SOD-1 protein levels | statistically significant effect | three-fold | slight increase | modestly elevated |
